The record followed here is patent US12590118B2, “Salt and crystal form of steroid derivative regulator” (Shanghai Hansoh Biomedical Co., Ltd., priority 2019, dated 2026).

SMILES strings stand for the structures.

One assay addresses GABA-A receptor. The assay is described as follows: 35S-TBPS binding assay (GABAA receptor binding ability assay). To be noted: rat cerebral cortex cell membrane, 5 μM GABA, 2 nM 35S-TBPS; read-out: IC50 on inhibiting the TBPS binding activity, 35S-TBPS bindng assay. Also on record: species or system Sprague-Dawley rat. The procedure:
1. The cerebral cortex of male Sprague-Dawley rat was isolated.
2. A pre-chilled 0.32 M sucrose solution (one tablet of protease inhibitor was added per 100 mL) was added to the cerebral cortex (the volume of sucrose solution was 10 times the volume of the cerebral cortex). The mixture was crushed with a 50 mL glass tissue homogenizer in batches and mixed well.
3. The mixture was centrifuged at 1,500 g, 4° C. for 10 minutes, and the supernatant was collected.
4. The mixture was centrifuged at 20,000 g, 4° C. for 30 minutes, and the supernatant was discarded.
5. The precipitate was resuspended with the pre-chilled phosphate buffer saline (PBS) (one tablet of protease inhibitor was added per 100 mL). An average of 4 mL of PBS was added per rat, and the mixture was mixed well with a glass tissue homogenizer.
6. The mixture was centrifuged at 10,000 g, 4° C. for 10 minutes, and the supernatant was discarded.
7. Steps 5 and 6 were repeated three times.
8. Finally, the precipitate was resuspended with 4 volumes of PBS. The resulting solution was dispensed, frozen in liquid nitrogen, and stored at −80° C.
9. The protein concentration was measured by the bicinchoninic acid (BCA) method.
1. 230 μL of PBS was added to each well of a well plate with 1.1 mL volume.
2. 60 μL of the cerebral cortex cell membrane (5 μg/μL) solution was added to each well, and the mixture was mixed well.
3. The test compound (3 μL per well) was added, and the plate was incubated at 25° C. for 5 minutes. The DMSO concentration was 1%. The initial compound concentration was […], and a
3-fold dilution in gradient was carried out to obtain a total of 8 gradients and 2 replicates. 1% DMSO was used as a negative control, and 10 μM P026-2 was used as a positive control.
4. GABA was added at a final concentration of 5 μM, and incubated at 25° C. for 5 minutes. 1 mM GABA solution was formulated, and 1.5 μL of the solution was added to each well.
5. 35S-TBPS was added at a final concentration of 2 nM. The concentration of isotope mother solution was 9.7 μM. After dilution with PBS for 100 times, 6 μL of the diluted isotope solution was added to each well.
6. The plate was incubated at 4° C. for 20 hours.
7. The FilterMate GF/C plate was pre-treated with 0.5% PEI, and incubated at 4° C. for 1 hour.
8. The FilterMate GF/C plate was washed with Universal Harvester twice, 50 mL PBS each time.
9. The reaction solution was transferred to the GF/C plate, and each well was washed 4 times with 900 μL of PBS.
10. The washed GF/C plate was placed at 55° C. and dried for 10 minutes.
11. 40 μL of scintillation solution was added to each well, and the CPM value was read with TopCount.
In the experiment, the CPM (counts per minute) value was read with TopCount. According to the readings of the High control (DMSO) and the Low control (10 μM of the positive compound) experimental groups, the % inhibition was calculated based on the following formula: % Inhibition=100×(CPMHigh control−CPMsample)/(CPMHigh control−CPMLow control)
The IC50 of the compound was calculated according to the following 4-parameter nonlinear logic formula: Y=Bottom+(Top−Bottom)/(1+10^((Log IC50−X)*HillSlope)),
wherein: • X represents the log of compound concentration, • Y represents the % Inhibition.
The effect of the compound of the present invention on the TBPS binding activity was determined by the above test, and the measured IC50 values are shown in Table 5.

Another assay concerns ICR mice. The assay can be described thus: Forced swimming model in mice. Particulars: for Mean (immobility, %): floating time/240 s; for Mean (immobility, s): latter four minutes of 6 min swim; for immobility time during the latter four minutes compared with that of the model group: forced swimming, ICR mice. It is filed as in vivo. How it is done: The antidepressant effect of the compound was evaluated by the forced swimming model in mice.
Compounds of Examples 1 to 3, Example 9, Example 40, Example 41, Examples 48 to 52, Example 90 and Example 98 of the present invention, prepared by the applicant.
Male ICR mice (25-35 g) were adapted in the experiment environment for 3 days before the forced swimming test.
According to the experiment design, the mice were randomly grouped on the day before the experiment according to body weight, with 12 mice in each group. Before the test, the compounds of each example were administered intragastrically according to the Tmax thereof in the brain in mice pharmacokinetic experiment.
Respectively: • 1) Model group (0.5% CMC-Na-1% Tween 80 solution, p.o., 10 mL/kg); • 2) Compounds of Examples 1 to 3, Example 40, Example 41, Examples 48 to 51, Example 90 and Example 98 (10 mg/kg, p.o., 10 mL/kg); Example 9 and Example 52 (5 mg/kg, p.o., 5 mL/kg).
When being administered, the compounds of each example were suspended in 0.5% CMC-Na+1% Tween 80 solution to the desired concentration.
0.5-1 hour after administration, ICR mice were placed in a forced swimming device (transparent glass drum (water depth 18 cm, water temperature 25-26° C.), one mouse per tank) and forced to swim for 6 minutes. The forced swimming device recorded the floating time of the ICR mice during the entire 6 minutes, and the data of the latter four minutes were used for data analysis. The mice were taken out immediately after the swimming experiment, wiped dry and put back in their original cages.
Note: The criterion for determining the immobility time is that the mouse stops struggling in water and floats, and there are only slight limb movements to keep the head floating on the water.
3.4 Data Analysis Floating time percentage=100*floating time/240 s.

The term IC50 denotes the point on the concentration scale where inhibition reaches its midpoint. In the case of `C[C@@]1(O)CC[C@H]2[C@H](CC[C@@H]3[C@@H]2CC[C@]2(C)C(C(=O)Cn4cc(C#N)cn4)C[C@@H](C4CC4)[C@@H]32)C1` (stereo partly drawn) [Example 48, 1-(2-((3R,5R,8R,9R,10S,13S,14S,15S)-15-Cyclopropyl-3-hydroxy-3,13-dimethylhexadecahydro-1H-cyclopenta[a]phenanthren-17-yl)-2-oxoethyl)-1H-pyrazole-4-carbonitrile], the concentration for half-maximal inhibition (IC50) on GABA-A receptor was 7.5 nM. Also, in the assay with ICR mice (dose 10 mpk p.o.), the “Mean (immobility, %)” value is reported as 55.92% and the “Mean (immobility, s)” value was determined as 134.21 s.
Take `C[C@@]1(O)CC[C@H]2[C@H](CC[C@@H]3[C@@H]2CC[C@@]2(C)[C@H]3[C@H](C3CC3)C[C@@H]2C(=O)Cn2ncnn2)C1` [Example 98, 1-((3R,5R,8R,9R,10S,13S,14S,15S,17S)-15-Cyclopropyl-3-hydroxy-3,13-dimethylhexadecahydro-1H-cyclopenta[a]phenanthren-17-yl)-2-(2H-tetrazol-2-yl)ethan-1-one]: on GABA-A receptor, the IC50 was 21.4 nM. In the assay with ICR mice (dose 5 mpk p.o.), the “Mean (immobility, %)” value is recorded as 33.54% and the “Mean (immobility, s)” value was found to be 80.5 s. In the assay on ICR mice, the “immobility time during the latter four minutes compared with that of the model group” value is reported as “very significantly different”.
Regarding `CC[C@@H]1C[C@H](C(=O)Cn2ccc(C#N)n2)[C@@]2(C)CC[C@H]3[C@@H](CC[C@@H]4C[C@](C)(O)CC[C@@H]43)[C@H]12` [Example 90, 1-(2-((3R,5R,8R,9R,10S,13S,14S,15R,17S)-15-Ethyl-3-hydroxy-3,13-dimethylhexadecahydro-1H-cyclopenta[a]phenanthren-17-yl)-2-oxoethyl)-1H-pyrazole-3-carbonitrile], the concentration for half-maximal inhibition (IC50) on GABA-A receptor was determined as 16.2 nM. Also, in the assay on ICR mice (dose 10 mpk p.o.), the “Mean (immobility, %)” value amounted to 36.92% and the “Mean (immobility, s)” value is 88.61 s. Also, the “immobility time during the latter four minutes compared with that of the model group” value in the assay with ICR mice is reported as “very significantly different”.
Regarding `C[C@@]1(O)CC[C@H]2[C@H](CC[C@@H]3[C@@H]2CC[C@@]2(C)[C@H]3[C@@H]3C[C@@H]3[C@@H]2C(=O)Cn2cc(C#N)cn2)C1` [Example 1, 1-(2-((2R,4aS,4bR,6aS,7S,7aS,8aR,8bR,8cR,10aR)-2-hydroxy-2,6a-dimethyloctadecahydrocyclopropa[4,5]cyclopenta[1,2-a]phenanthren-7-yl)-2-oxoethyl)-1H-pyrazole-4-carbonitrile], the IC50 at GABA-A receptor stood at 24.3 nM. Besides, in the assay on ICR mice (dose 10 mpk p.o.), the “Mean (immobility, %)” value was 54.26% and the “Mean (immobility, s)” value is listed as 130.22 s.
Regarding `C[C@@]1(O)CC[C@H]2[C@H](CC[C@@H]3[C@@H]2CC[C@@]2(C)[C@H]3[C@H](C3CC3)C[C@@H]2C(=O)Cn2ccnn2)C1` [Example 51, 1-((3R,5R,8R,9R,10S,13S,14S,15S,17S)-15-Cyclopropyl-3-hydroxy-3,13-dimethylhexadecahydro-1H-cyclopenta[a]phenanthren-17-yl)-2-(1H-1,2,3-triazol-1-yl)ethan-1-one], in the assay on ICR mice (dose 5 mpk p.o.), the “Mean (immobility, %)” value is 30.72% and the “Mean (immobility, s)” value was found to be 73.72 s.
For the compound `C[C@@]1(O)CC[C@H]2[C@H](CC[C@@H]3[C@@H]2CC[C@@]2(C)[C@H]3[C@H](C3CC3)C[C@@H]2C(=O)Cn2nccn2)C1` [Example 50, 1-((3R,5R,8R,9R,10S,13S,14S,15S,17S)-15-Cyclopropyl-3-hydroxy-3,13-dimethylhexadecahydro-1H-cyclopenta[a]phenanthren-17-yl)-2-(2H-1,2,3-triazol-2-yl)ethan-1-one], in the assay with ICR mice (dose 10 mpk p.o.), the “Mean (immobility, %)” value came to 29.57% and the “Mean (immobility, s)” value worked out at 70.96 s. For the same compound, in the assay with ICR mice, the “immobility time during the latter four minutes compared with that of the model group” value is given as “very significantly different”.
`C[C@@]1(O)CC[C@H]2[C@H](CC[C@@H]3[C@@H]2CC[C@@]2(C)[C@H]3[C@@H]3C[C@@H]3[C@@H]2C(=O)Cn2cc(C(F)(F)F)cn2)C1` [Example 3, 1-((2R,4aS,4bR,6aS,7S,7aS,8aR,8bR,8cR,10aR)-2-Hydroxy-2,6a-dimethyloctadecahydrocyclopropa[4,5]cyclopenta[1,2-a]phenanthren-7-yl)-2-(4-(trifluoromethyl)-1H-pyrazol-1-yl)ethan-1-one]: the IC50 on GABA-A receptor amounted to 13.5 nM. For the same compound, in the assay on ICR mice (dose 10 mpk p.o.), the “Mean (immobility, %)” value was determined as 59.93% and the “Mean (immobility, s)” value is reported as 143.81 s.
For the compound `Cc1nnn(CC(=O)[C@H]2C[C@@H](C)[C@H]3[C@@H]4CC[C@@H]5C[C@](C)(O)CC[C@@H]5[C@H]4CC[C@@]32C)n1` [Example 43, 1-((3R,5R,8R,9R,10S,13S,14S,15R,17S)-3-Hydroxy-3,13,15-trimethylhexadecahydro-1H-cyclopenta[a]phenanthren-17-yl)-2-(5-methyl-2H-tetrazol-2-yl)ethan-1-one], the concentration for half-maximal inhibition (IC50) at GABA-A receptor was determined as 5.4 nM.
The same measure, in the same setting: to `CC[C@@H]1C[C@H](C(=O)Cn2nccn2)[C@@]2(C)CC[C@H]3[C@@H](CC[C@@H]4C[C@](C)(O)CC[C@@H]43)[C@H]12` [Example 94, 1-((3R,5R,8R,9R,10S,13S,14S,15R,17S)-15-Ethyl-3-hydroxy-3,13-dimethylhexadecahydro-1H-cyclopenta[a]phenanthren-17-yl)-2-(2H-1,2,3-triazol-2-yl)ethan-1-one] belongs 23.9 nM.
`C[C@@]1(O)CC[C@H]2[C@H](CC[C@@H]3[C@@H]2CC[C@@]2(C)[C@H]3[C@H](C3CC3)C[C@@H]2C(=O)Cn2ccc(C#N)n2)C1` [Example 49, 1-(2-((3R,5R,8R,9R,10S,13S,14S,15S,17S)-15-Cyclopropyl-3-hydroxy-3,13-dimethylhexadecahydro-1H-cyclopenta[a]phenanthren-17-yl)-2-oxoethyl)-1H-pyrazole-3-carbonitrile]: in the assay on ICR mice (dose 10 mpk p.o.), the “Mean (immobility, %)” value was 35.74% and the “Mean (immobility, s)” value is given as 85.77 s. Also, the “immobility time during the latter four minutes compared with that of the model group” value with ICR mice was “very significantly different”.
Regarding `C[C@@H]1C[C@H](C(=O)Cn2ncnn2)[C@@]2(C)CC[C@H]3[C@@H](CC[C@@H]4C[C@](C)(O)CC[C@@H]43)[C@H]12` [Example 44, 1-((3R,5R,8R,9R,10S,13S,14S,15R,17S)-3-Hydroxy-3,13,15-trimethylhexadecahydro-1H-cyclopenta[a]phenanthren-17-yl)-2-(2H-tetrazol-2-yl)ethan-1-one], at GABA-A receptor, the half-maximal inhibitory concentration (IC50) was found to be 6.1 nM.
